Experimental data from patent US20250099420A1, “SMALL MOLECULE MODULATORS OF GPR139 COMPLEX” (University of Florida Research Foundation, Incorporated, priority 2022, published 2025).
Read-outs that look alike come from different tables or passages of the source.

How the values were obtained:
[1] = system: parental HEK cells; assay: HEK parental Agonist Counterscreen Assay (non-transfected cells); type: cell-based; settings: for Averaged Max % Response (±St. Dev.): activity relative to known control
From the text: The high control for the agonist counterscreen was Forskolin not acetylcholine.

[2] = target: T1, GPR139 (Homo sapiens, UniProt Q6DWJ6); assay: GPR139 Agonist titration / agonist counterscreen assay (calcium detection, HEK-GPR139 cells); type: cell-based; parameters: expressed in transfected cells; host or cells: HEK Aequorin cells, Maxcyte transient transfection; settings: GPR139 Agonist Activity; for Averaged Max % Response (±St. Dev.): activity relative to known control; for EC50: read-out: EC50
T1 sequence (Q6DWJ6 1-353): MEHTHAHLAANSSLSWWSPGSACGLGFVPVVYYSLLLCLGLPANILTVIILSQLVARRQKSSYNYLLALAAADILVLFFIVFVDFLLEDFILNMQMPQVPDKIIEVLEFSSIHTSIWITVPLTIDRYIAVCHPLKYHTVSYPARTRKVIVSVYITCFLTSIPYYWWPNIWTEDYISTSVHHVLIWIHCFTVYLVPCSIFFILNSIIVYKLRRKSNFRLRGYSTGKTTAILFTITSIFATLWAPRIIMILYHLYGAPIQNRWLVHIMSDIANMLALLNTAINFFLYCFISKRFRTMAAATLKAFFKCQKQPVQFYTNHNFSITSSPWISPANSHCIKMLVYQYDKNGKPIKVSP
Procedure: GPR activity was assessed using a calcium detection assay. […] Negative control samples were treated with DMSO. […] Intracellular calcium was measured using Calcium 5.

[3] = Homo sapiens, HEK293, HEK Agonist Activity section of Table 4 (parental HEK counterscreen)
[4] = values printed in E-notation without unit
[5] = Homo sapiens, HEK293, HEK Agonist Activity, parental non-transfected HEK cells
[6] = HEK Agonist Activity section of Table 4 (parental HEK counterscreen)

| Lipophilic Efficiency (logD) ([1]; HEK Agonist Activity section) | Lipophilic Efficiency (logP) ([1]; HEK Agonist Activity section) | Averaged Max % Response (±St. Dev.) [2] | Lipophilic Efficiency (logD) ([2]; based on logD) | Lipophilic Efficiency (logP) ([2]; based on logP) | Hill Slope ([2]; fitted dose-response curve) | Efficiency Ligand ([2]; ligand efficiency) | EC50 [2, 4] | Lipophilic Efficiency (logD) ([1]; HEK Agonist Activity) | Lipophilic Efficiency (logP) ([1]; HEK Agonist Activity) | Efficiency Ligand [2] | Hill Slope [2] | Lipophilic Efficiency (logD) [2] | Lipophilic Efficiency (logP) [2] | EC50 ([2]; HEK-GPR139 cells) | Compound | Averaged Max % Response (±St. Dev.) ([1]; HEK Agonist Activity section) | EC50 [1, 3] | Averaged Max % Response (±St. Dev.) ([1]; HEK Agonist Activity) | EC50 [1, 5] | EC50 [1, 6] |
| --- | --- | --- | --- | --- | --- | --- | --- | --- | --- | --- | --- | --- | --- | --- | --- | --- | --- | --- | --- | --- |
| 0.38 | 0.38 | 105.90 ± 33.97% | – | – | – | – | – | – | – | 0.38 | 0.88 | 2.10 | 2.10 | 0.313 µM | COc1ccc(NC(=O)NC(O)(O)c2cccc(C(C)=O)c2)cc1 [SR-01000428888] | −2.45 ± 12.32% | > 16.4 µM | – | – | – |
| 1.05 | 1.05 | 80.96 ± 18.51% | – | – | – | – | – | – | – | 0.34 | 0.88 | 1.94 | 1.94 | 2.3 µM | Cc1c(Cl)c(C(F)(F)F)nn1CC(=O)NCc1ccc(Cl)cc1 [SR-01000429212] | −31.95 ± 8.26% | > 18 µM | – | – | – |
| 1.72 | 1.67 | 68.48 ± 7.96% | – | – | – | – | – | – | – | 0.27 | 1.13 | 2.21 | 2.16 | 3.8 µM | CCn1c2ccccc2c2cc(C3C(C#N)=C(N)Oc4n[nH]c(C)c43)ccc21 (centres unmarked) [SR-01000465824] | −11.98 ± 3.62% | – | – | – | > 11.8 µM |
| 1.48 | 1.48 | 109.12 ± 32.80% | – | – | – | – | – | – | – | 0.36 | 0.84 | 3.11 | 3.11 | 0.437 µM | CCN(Cc1ccccc1)C(=O)Cn1cnc2sc(O)c(C)c2c1=O [SR-01000468553] | 35.00 ± 2.11% | > 18.5 µM | – | – | – |
| 2.56 | 2.56 | 101.79 ± 19.12% | – | – | – | – | – | – | – | 0.40 | 1.21 | 4.24 | 4.24 | 0.277 µM | O=C(CCOc1ccccc1)NCC1COc2ccccc2O1 (centres unmarked) [SR-01000479007] | 8.46 ± 4.77% | – | – | – | > 13.2 µM |

The next lines start with the molecule.

| Compound | Lipophilic Efficiency (logD) ([1]; HEK Agonist Activity section) | Lipophilic Efficiency (logP) ([1]; HEK Agonist Activity section) | Averaged Max % Response (±St. Dev.) [2] | Lipophilic Efficiency (logD) ([2]; based on logD) | Lipophilic Efficiency (logP) ([2]; based on logP) | Hill Slope ([2]; fitted dose-response curve) | Efficiency Ligand ([2]; ligand efficiency) | EC50 [2, 4] | Lipophilic Efficiency (logD) ([1]; HEK Agonist Activity) | Lipophilic Efficiency (logP) ([1]; HEK Agonist Activity) | Efficiency Ligand [2] | Hill Slope [2] | Lipophilic Efficiency (logD) [2] | Lipophilic Efficiency (logP) [2] | EC50 ([2]; HEK-GPR139 cells) | Averaged Max % Response (±St. Dev.) ([1]; HEK Agonist Activity section) | EC50 [1, 3] | Averaged Max % Response (±St. Dev.) ([1]; HEK Agonist Activity) | EC50 [1, 5] | EC50 [1, 6] |
| --- | --- | --- | --- | --- | --- | --- | --- | --- | --- | --- | --- | --- | --- | --- | --- | --- | --- | --- | --- | --- |
| Cc1ccccc1C(=O)NNC(=O)C(C)Oc1ccc(Cl)cc1Cl (centres unmarked) [SR-01000410694] | 0.98 | 0.95 | 91.99 ± 13.68% | 2.98 | 2.96 | 1.03 | 0.41 | 0.1 µM | – | – | – | – | – | – | – | 10.08 ± 3.68% | > 10.2 µM | – | – | – |
| Cc1cccc(C(=O)NNC(=O)C(C)Oc2ccc(O)cc2O)c1 (centres unmarked) [SR-01000410744] | – | – | 114.68 ± 11.76% | 5.27 | 5.24 | – | 0.54 | < 0.000517 µM | 0.98 | 0.95 | – | – | – | – | – | – | – | 17.10 ± 14.93% | > 10.2 µM | – |
| COc1ccc(CCNC(=O)COc2ccc(Cl)cc2Cl)cc1 [SR-01000412367] | – | – | 112.23 ± 25.44% | 4.43 | 4.43 | 0.32 | 0.50 | 0.0062 µM | 1.11 | 1.11 | – | – | – | – | – | – | – | 5.28 ± 6.57% | > 13 µM | – |
| O=C(CC1C(=O)N(c2ccccc2)C(=O)N1Cc1ccc2c(c1)OCO2)Nc1ccc(Cl)cc1 (centres unmarked) [SR-01000428566] | 0.07 | 0.07 | 84.07 ± 18.43% | – | – | – | – | – | – | – | 0.26 | 1.72 | 1.52 | 1.52 | 0.424 µM | 40.80 ± 6.00% | > 11.9 µM | – | – | – |
